This note sets out measurements from ChEMBL document CHEMBL1130554, “BMS-200475, a novel carbocyclic 2-deoxyguanosine analog with potent and selective anti-hepatitis B virus activity in vitro” (Bioorg Med Chem Lett, 1997).

pEC50: −log10 of the molar value.

The subject of test [1] is HepG2. In words: Tested for the effective concentration required to inhibit HBV in HepG2.2.15 human liver cells. Type of test: functional, cell-based.
The test system of test [2] is WI-38. In words: Tested for effective concentration required to inhibit herpes simplex virus type 1 (HSV-1) in WI-38 cells. Type of test: functional, cell-based. The settings on record: Homo sapiens.
Test [3] deals with WI-38. Put plainly: Tested for cytotoxic concentration against herpes simplex virus type 1 (HSV-1) in WI-38 cells. Type of test: functional. The settings on record: Homo sapiens.
In test [4] the test system is HepG2. Put plainly: Tested for the cytotoxicity against hepatitis B virus (HBV) in HepG2.2.15 cells. The settings on record: Homo sapiens. Type of test: functional.
In test [5] the test system is Hepatitis B virus. In words: Tested for cytotoxic concentration against hepatitis B virus. In kind it is functional.
Test [6] deals with Hepatitis B virus. Put plainly: Tested effective dose against hepatitis B virus in vitro. Type of test: functional. The settings on record: read-out: ED50 (the source's name).
The test system of test [7] is WI-38. In words: Tested for effective concentration required to inhibit varicella zoster virus (VZV) in WI-38 cells; 30-60. Type of test: functional, cell-based. Conditions: Homo sapiens.
In test [8] the test system is CEM-SS. In words: Tested for effective concentration to inhibit human immunodeficiency virus (HIV) in CEM-SS cells. Type of test: functional, cell-based.
Test [9] in a line: Tested for effective concentration required to inhibit of influenza virus in MDBK cells. In kind it is functional, cell-based, Bos taurus.
For test [10], the system named is WI-38. Put plainly: Tested for cytotoxic concentration against varicella zoster virus (VZV) in WI-38 cells. Conditions: Homo sapiens. In kind it is functional.
The test system of the next test is HFF. Put plainly: Tested for effective concentration required to inhibit human cytomegalovirus (HCMV) in HFF cells. Type of test: functional, cell-based.
Test [11] can be described thus: Tested for cytotoxic concentration against influenza virus in MDBK cells. Conditions: Bos taurus. In kind it is functional.
The test system of test [12] is CEM-SS. Put plainly: Tested for cytotoxic concentration against human immunodeficiency virus (HIV) in CEM-SS cells. Type of test: functional.

Compound `C=C1[C@H](CO)[C@@H](O)C[C@@H]1n1cc(C)c(=O)[nH]c1=O` gave a pEC50 with HepG2 [1] of under 4.00.
Turning to `C=C1[C@H](CO)[C@@H](O)C[C@@H]1n1cc(I)c(=O)[nH]c1=O`, the pEC50 with HepG2 [1] was 4.98.
As for `C=C1[C@H](CO)[C@@H](O)C[C@@H]1n1cnc2c(N)ncnc21`, the pEC50 in the test with HepG2 [1] is 6.89.
On the same count and under the same terms, in the case of `Nc1nc(O)c2ncn([C@@H]3C[C@H](CO)[C@@H](O)C3)c2n1` it was 7.30; in that of `C=C1[C@@H](CO)[C@H](O)C[C@H]1n1cnc2c(O)nc(N)nc21`, 4.00.
Take `C=C1[C@H](CO)[C@@H](O)C[C@@H]1n1cnc2c(=O)[nH]c(N)nc21` [ENTECAVIR]: the pEC50 was at most 4.49 in the test with WI-38 [2]; 8.52 in the test with HepG2 [1]; 8.52 with Hepatitis B virus [6]; 4.52 in the test with WI-38 [7]; under 5.00 in the test with CEM-SS [8]; under 4.10 in test [9]. The pEC50 in the test with HFF was 4.82. The CC50 in the test with WI-38 [3] was over 90 µM; in the test with HepG2 [4] it was 30 µM; with Hepatitis B virus [5] it was 21 µM; in the test on WI-38 [10], 120 µM; in test [11], 78 µM; in the test with CEM-SS [12] it was 21 µM.
As to `Nc1ccn([C@@H]2CS[C@H](CO)O2)c(=O)n1` [LAMIVUDINE], in the test on HepG2 [1], the pEC50 is 6.70.
On the same count and under the same terms, with `Nc1nc(O)c2ncn(CCC(CO)CO)c2n1` [PENCICLOVIR] the figure was at most 4.00.
